# Tested on: normal human melanocyte
# Experiment: UVB-induced cell activation inhibition test using normal human melanocyte
# Type: cell-based
# Conditions: formazan (MTT) production ratio, UVB-irradiated DMSO negative control = 100%; UVB 5 mJ/cm^2; 100 mM in DMSO diluted 1,000 times; conditioned medium of normal human keratinocyte; mean of 3 samples
# Procedure: The inhibitory effect of the compounds on the activation of melanocyte by activating factor produced and released from normal human keratinocyte by the ultraviolet B (UVB) was evaluated by using the index of the cell proliferation of normal human melanocyte.
# Normal human keratinocyte (Kurabo Industries, Ltd.) were seeded by Humedia-KG2 medium (Kurabo Industries, Ltd.) at a concentration of 10×10^4 cells/well in 24-well plate. Then, cells were cultured for 24 hours.
# The compound was dissolved at a concentration of 100 mM in DMSO, which was diluted 1,000 times with Humedia-KG2 medium and used as a sample solution. As for the positive control group, tranexamic acid was dissolved at a concentration of 100 mM in DMSO, which was diluted 1,000 times with Humedia-KG2 medium as a positive control sample solution. As for the negative control group, DMSO was diluted 1,000 times with Humedia-KG2 medium as a negative control sample solution.
# The medium of normal human keratinocyte was exchanged with Humedia-KG2 medium (sample solution) containing the compound at a predetermined concentration and cells were cultured for further 24 hours. After that, the medium was exchanged with PBS (phosphate buffered saline), and cells were irradiated with the ultraviolet B (UVB) at 5 mJ/cm^2 by using an ultraviolet lamp (FL20S•E-30/DMR, Toshiba Medical Supply Co., Ltd.) as a light source. After the ultraviolet radiation, PBS was exchanged with the sample solution. Cells were cultured for further 24 hours, and then the conditioned medium was collected. Normal human melanocyte cells were seeded at the concentration of 3×10^4 cells/well in 96-well plate by a medium of Medium 254 (Kurabo Industries, Ltd.). Cells were cultured for 24 hours. After that, the medium was exchanged with the conditioned medium collected from normal human keratinocyte, and cells were cultured for further 24 hours. After 24 hours, the medium was exchanged with Humedia-KG2 medium containing 0.5 mg/mL of 3-(4,5-dimethyl-2-thiazoyl)-2,5-diphenyl-2H-tetrazolium bromide (MTT), and cultured for 3 hour.
# The formazan amount was measured by the absorbances at 570 nm and 690 nm of cell lysate lysed with 2-propanol using a microplate reader (Benchmark Plus, Bio-Rad) by subtracting the absorbance at 690 nm from the absorbance at 570 nm.
# The inhibitory effect of each compounds on melanocyte proliferation was calculated as the formazan production ratio (%) when the absorbance of negative control group, which was added DMSO and UVB irradiated, was defined as 100%.
# Therefore, the small production ratio of formazan means that the inhibitory effect of the compounds is strong against the activation of melanocyte by the melanocyte activating factor released form keratinocyte.
row,SMILES,Melanocyte proliferation ratio Average (%)
1,"Cc1ccc(C(=O)NC(CCS(=O)(=O)O)C(=O)O)cc1 (racemic) [Compound 6, N-(p-toluoyl)homocysteic acid]",71.3
2,"Cc1ccccc1C(=O)N[C@@H](CS(=O)(=O)O)C(=O)O [L-Isomer of Compound 1, N-(o-Toluoyl)-L-cysteic acid]",73.7
3,"Cc1cccc(C(=O)N[C@@H](CS(=O)(=O)O)C(=O)O)c1 [L-Isomer of Compound 2, N-(m-toluoyl)cysteic acid]",77.0
4,"Cc1ccc(C(=O)N[C@@H](CS(=O)(=O)O)C(=O)O)cc1 [L-Isomer of Compound 3, N-(p-toluoyl)cysteic acid]",58.4
5,"COc1ccc(C(=O)N[C@@H](CS(=O)(=O)O)C(=O)O)cc1 [L-Isomer of Compound 4, N-(p-methoxybenzoyl)cysteic acid]",65.6
6,"O=C(N[C@@H](CS(=O)(=O)O)C(=O)O)c1ccc(-c2ccccc2)cc1 [L-Isomer of Compound 5, N-(4-phenylbenzoyl)cysteic acid]",79.0
7,"NC[C@H]1CC[C@H](C(=O)O)CC1 [Tranexamic acid, reference compound]",80.9

# Tested on: pigmented guinea pigs
# Experiment: Ultraviolet ray-induced pigmentation suppression test using guinea pigs
# Type: in vivo, guinea pig
# Conditions: 0.5% (w/v) in ethanol, 30 μL once a day for 6 weeks; L* on 43rd day minus L* before UV (300 mJ/cm^2); average ± standard deviation of 8 animals; solvent control −10.07 ± 0.78
# Source text: The hair of the dorsal skin of each of eight pigmented guinea pigs was removed and shaved using an electrical hair clipper and shaver, and each of the sites was covered with a black cloth having a total of four (two on the top and bottom and two on the right and left) irradiation windows with a size of 2×2 cm, and then irradiated with ultraviolet rays of 300 mJ/cm^2 using FL20S•E30 lamp as a light source. The operation was repeated on days 1, 3, 5, and 8 after the start of the test to induce pigmentation on the four test sites. Compound 3 was dissolved in ethanol at a concentration of 0.5% (w/v) to prepare samples for application. Further, as a control, ethanol was used alone as a sample for application. On the 1st day of the test after the ultraviolet radiation, the application of samples was started. […] The skin brightness (L* value) of each of the test sites was measured by a colorimeter (CR-200, Konica Minolta Holdings, Inc.) before the ultraviolet radiation on the day of the start of application (day 1) and after 6 weeks (on the 43rd day of the test), and a ΔL* value was calculated by subtracting an L* value before the ultraviolet radiation from the L* value on 43rd day of the test. […] Therefore, it can be evaluated that, as the ΔL* value becomes larger (high numerical value), pigmentation is more inhibited.
row,SMILES,ΔL* value
1,"Cc1ccc(C(=O)NC(CS(=O)(=O)O)C(=O)O)cc1 [L-Isomer of Compound 3, N-(p-toluoyl)cysteic acid]",−8.88 ± 0.54

# Same assay, conditions: concentration of 0.5%, applied to the skin
row,SMILES,suppression of ultraviolet-induced pigmentation (in words)
1,"Cc1ccc(C(=O)NC(CS(=O)(=O)O)C(=O)O)cc1 [L-Isomer of Compound 3, N-(p-toluoyl)cysteic acid]",clearly suppresses the pigmentation

# — patent US9066914B2, “Prophylactic or ameliorating agent for pigmentation” (POLA CHEMICAL INDUSTRIES INC., priority 2010, dated 2015)
